Reference: article PMC7865522, “Analyzing Kinase Similarity in Small Molecule and Protein Structural Space to Explore the Limits of Multi-Target Screening” (Molecules, 2021)

What was measured:
[1] = biological target: panel of 290 kinases; set-up: method as in PMID 18183025; conditions: cited from earlier work
[2] = biological target: T1, p38α (Homo sapiens, UniProt Q16539); assay: DiscoverX KINOMEscan competition binding assay; conditions: compound 10 µM; lower values = higher affinity; below 35% = significant binding
T1 construct: purchased DiscoverX (KINOMEscan service); host or cells: E. coli BL21-derived host (T7 phage) or HEK-293
T1 sequence (Q16539 whole entry): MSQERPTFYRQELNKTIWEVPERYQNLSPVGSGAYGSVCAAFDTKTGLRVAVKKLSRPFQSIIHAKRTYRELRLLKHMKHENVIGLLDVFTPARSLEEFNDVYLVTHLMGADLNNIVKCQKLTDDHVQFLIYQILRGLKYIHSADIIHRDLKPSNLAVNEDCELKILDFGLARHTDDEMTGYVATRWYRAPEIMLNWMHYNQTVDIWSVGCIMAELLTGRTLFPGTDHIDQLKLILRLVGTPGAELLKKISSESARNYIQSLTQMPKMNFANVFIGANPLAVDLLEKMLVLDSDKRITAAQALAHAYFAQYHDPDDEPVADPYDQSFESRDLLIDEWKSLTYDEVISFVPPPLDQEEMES
Method in brief: (§1)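 Single-point test at 10 µM against DNA-tagged kinase (phage or HEK-293 source) binding to an immobilized reference ligand. Remaining bead-bound kinase quantified by qPCR as % of control.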

[3] = biological target: T2, CDK2 (Homo sapiens, UniProt P24941); assay: DiscoverX KINOMEscan competition binding assay; conditions: compound 10 µM; lower values = higher affinity; below 35% = significant binding
T2 construct: purchased DiscoverX (KINOMEscan service); host or cells: E. coli BL21-derived host (T7 phage) or HEK-293
Method in brief: as §1

[4] = biological target: T3, BRAF (Homo sapiens, UniProt P15056); assay: DiscoverX KINOMEscan competition binding assay; conditions: compound 10 µM; lower values = higher affinity; below 35% = significant binding
T3 construct: purchased DiscoverX (KINOMEscan service); host or cells: E. coli BL21-derived host (T7 phage) or HEK-293
Method in brief: as §1

[5] = biological target: T4, LCK (Homo sapiens, UniProt P06239); assay: DiscoverX KINOMEscan competition binding assay; conditions: compound 10 µM; lower values = higher affinity; below 35% = significant binding
T4 construct: purchased DiscoverX (KINOMEscan service); host or cells: E. coli BL21-derived host (T7 phage) or HEK-293
T4 sequence (P06239 whole entry): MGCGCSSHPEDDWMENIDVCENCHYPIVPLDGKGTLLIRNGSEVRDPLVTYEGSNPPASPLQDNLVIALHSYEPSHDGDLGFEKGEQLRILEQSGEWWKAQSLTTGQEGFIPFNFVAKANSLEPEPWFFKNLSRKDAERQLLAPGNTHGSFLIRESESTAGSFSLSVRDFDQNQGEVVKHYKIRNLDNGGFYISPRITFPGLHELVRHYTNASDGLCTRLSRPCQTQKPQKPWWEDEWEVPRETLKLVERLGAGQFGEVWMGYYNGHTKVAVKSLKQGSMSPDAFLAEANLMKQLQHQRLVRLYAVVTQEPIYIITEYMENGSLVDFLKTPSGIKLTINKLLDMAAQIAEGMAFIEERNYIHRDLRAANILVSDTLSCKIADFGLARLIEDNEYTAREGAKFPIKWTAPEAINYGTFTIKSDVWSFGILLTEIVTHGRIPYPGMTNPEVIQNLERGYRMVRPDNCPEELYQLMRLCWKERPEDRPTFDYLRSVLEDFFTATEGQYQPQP
Method in brief: as §1

[6] = biological target: T5, VEGFR2 (Homo sapiens, UniProt P35968); assay: DiscoverX KINOMEscan competition binding assay; conditions: compound 10 µM; lower values = higher affinity; below 35% = significant binding
T5 construct: purchased DiscoverX (KINOMEscan service); host or cells: E. coli BL21-derived host (T7 phage) or HEK-293
T5 sequence (P35968 20-1356): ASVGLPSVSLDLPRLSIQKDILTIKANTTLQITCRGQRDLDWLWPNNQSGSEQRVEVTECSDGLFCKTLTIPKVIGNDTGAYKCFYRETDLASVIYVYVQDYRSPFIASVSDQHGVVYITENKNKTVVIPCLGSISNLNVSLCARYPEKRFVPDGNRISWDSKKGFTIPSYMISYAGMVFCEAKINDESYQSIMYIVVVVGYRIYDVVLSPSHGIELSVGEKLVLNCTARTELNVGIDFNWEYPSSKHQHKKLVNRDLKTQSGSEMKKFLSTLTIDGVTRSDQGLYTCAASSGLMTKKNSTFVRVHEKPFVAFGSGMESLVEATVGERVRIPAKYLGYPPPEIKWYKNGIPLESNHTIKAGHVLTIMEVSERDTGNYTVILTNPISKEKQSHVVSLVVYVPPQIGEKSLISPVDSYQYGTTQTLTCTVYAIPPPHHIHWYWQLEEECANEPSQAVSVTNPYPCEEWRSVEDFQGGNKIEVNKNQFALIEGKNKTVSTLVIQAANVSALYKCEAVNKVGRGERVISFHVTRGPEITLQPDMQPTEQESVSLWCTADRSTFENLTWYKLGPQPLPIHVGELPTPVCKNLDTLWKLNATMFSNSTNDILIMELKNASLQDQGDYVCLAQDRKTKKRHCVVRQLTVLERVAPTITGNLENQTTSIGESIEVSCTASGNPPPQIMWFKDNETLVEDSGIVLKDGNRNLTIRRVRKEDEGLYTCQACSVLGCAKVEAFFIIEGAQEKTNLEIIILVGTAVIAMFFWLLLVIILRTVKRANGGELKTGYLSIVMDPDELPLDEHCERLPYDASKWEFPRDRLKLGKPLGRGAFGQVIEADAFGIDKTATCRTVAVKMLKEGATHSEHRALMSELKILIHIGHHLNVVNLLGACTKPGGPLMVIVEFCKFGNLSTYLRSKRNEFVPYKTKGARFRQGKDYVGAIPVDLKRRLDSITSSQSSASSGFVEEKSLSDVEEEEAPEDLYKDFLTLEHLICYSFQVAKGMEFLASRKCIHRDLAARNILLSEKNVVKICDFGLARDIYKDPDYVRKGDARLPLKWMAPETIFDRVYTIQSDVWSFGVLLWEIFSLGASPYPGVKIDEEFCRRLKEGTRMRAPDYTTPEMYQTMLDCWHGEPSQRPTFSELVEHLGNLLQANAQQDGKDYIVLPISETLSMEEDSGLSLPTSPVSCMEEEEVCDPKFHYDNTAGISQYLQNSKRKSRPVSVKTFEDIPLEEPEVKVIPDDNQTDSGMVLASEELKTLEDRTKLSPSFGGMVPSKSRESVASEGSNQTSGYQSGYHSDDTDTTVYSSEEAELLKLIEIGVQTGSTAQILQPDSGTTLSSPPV
Method in brief: as §1

[7] = biological target: T6, MET (Homo sapiens, UniProt P08581); assay: DiscoverX KINOMEscan competition binding assay; conditions: compound 10 µM; lower values = higher affinity; below 35% = significant binding
T6 construct: purchased DiscoverX (KINOMEscan service); host or cells: E. coli BL21-derived host (T7 phage) or HEK-293
Method in brief: as §1

[8] = biological target: T7, EGFR (Homo sapiens, UniProt P00533); assay: DiscoverX KINOMEscan competition binding assay; conditions: compound 10 µM; lower values = higher affinity; below 35% = significant binding
T7 construct: purchased DiscoverX (KINOMEscan service); host or cells: E. coli BL21-derived host (T7 phage) or HEK-293
Method in brief: as §1

[9] = biological target: T8, ErbB2 (Homo sapiens, UniProt P04626); assay: DiscoverX KINOMEscan competition binding assay; conditions: compound 10 µM; lower values = higher affinity; below 35% = significant binding
T8 construct: purchased DiscoverX (KINOMEscan service); host or cells: E. coli BL21-derived host (T7 phage) or HEK-293
T8 sequence (P04626 23-1255): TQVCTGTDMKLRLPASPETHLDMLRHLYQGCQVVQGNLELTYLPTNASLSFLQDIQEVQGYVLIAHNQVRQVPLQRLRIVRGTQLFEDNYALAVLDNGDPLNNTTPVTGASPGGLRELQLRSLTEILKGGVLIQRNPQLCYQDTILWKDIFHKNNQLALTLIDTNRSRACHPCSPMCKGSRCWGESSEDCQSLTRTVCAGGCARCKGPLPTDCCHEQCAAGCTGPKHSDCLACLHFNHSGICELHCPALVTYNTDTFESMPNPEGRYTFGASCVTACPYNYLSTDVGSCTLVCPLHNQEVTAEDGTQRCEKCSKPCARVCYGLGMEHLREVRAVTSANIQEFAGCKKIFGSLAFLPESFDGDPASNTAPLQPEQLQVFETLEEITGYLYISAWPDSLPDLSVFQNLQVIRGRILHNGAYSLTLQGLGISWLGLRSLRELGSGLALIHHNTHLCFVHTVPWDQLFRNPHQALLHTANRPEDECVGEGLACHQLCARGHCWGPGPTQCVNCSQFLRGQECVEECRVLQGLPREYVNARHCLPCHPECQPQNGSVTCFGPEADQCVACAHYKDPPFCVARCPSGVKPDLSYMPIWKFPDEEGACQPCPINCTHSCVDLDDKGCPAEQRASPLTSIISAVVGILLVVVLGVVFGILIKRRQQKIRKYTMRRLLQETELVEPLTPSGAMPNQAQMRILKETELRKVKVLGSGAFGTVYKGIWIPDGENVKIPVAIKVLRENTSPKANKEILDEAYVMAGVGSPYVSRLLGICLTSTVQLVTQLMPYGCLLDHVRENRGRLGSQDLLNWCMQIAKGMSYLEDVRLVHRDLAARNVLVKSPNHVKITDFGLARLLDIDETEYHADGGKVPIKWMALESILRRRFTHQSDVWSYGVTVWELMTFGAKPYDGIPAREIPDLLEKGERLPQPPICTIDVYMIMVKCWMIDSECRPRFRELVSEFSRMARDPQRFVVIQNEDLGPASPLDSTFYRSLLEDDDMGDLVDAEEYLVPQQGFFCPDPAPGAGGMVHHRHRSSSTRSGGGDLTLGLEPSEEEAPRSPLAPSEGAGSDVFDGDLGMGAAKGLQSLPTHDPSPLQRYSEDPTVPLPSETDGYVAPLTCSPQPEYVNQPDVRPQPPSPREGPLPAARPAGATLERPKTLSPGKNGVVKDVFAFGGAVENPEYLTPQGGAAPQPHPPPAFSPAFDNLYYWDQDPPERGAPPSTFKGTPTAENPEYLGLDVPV
Method in brief: as §1

[10] = biological target: T9, PI3K (Homo sapiens, UniProt P42336); assay: Eurofins in vitro kinase inhibition assay (HTRF, PIP3 displacement); format: biochemical; set-up: purchased Eurofins Cerep (contract assay); conditions: compound 20 µM; mean (SD); above 50% significant, 25-50% weak
Method in brief: (§2)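 Reported as mean (SD) % inhibition of control activity at 20 µM compound. PI3K: PIP2-derived PIP3 displacing biotinylated PIP3 from a binding complex, HTRF read-out. EGFR, ErbB2, BRAF: kinase, ATP and substrate analog incubated with compound, phosphorylation quantified.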

[11] = biological target: T3, BRAF; assay: Eurofins in vitro kinase inhibition assay; format: biochemical; conditions: compound 20 µM; mean (SD); above 50% significant, 25-50% weak
Method in brief: as §2

[12] = biological target: T7, EGFR; assay: Eurofins in vitro kinase inhibition assay; format: biochemical; conditions: compound 20 µM; mean (SD); above 50% significant, 25-50% weak
Method in brief: as §2

[13] = biological target: T8, ErbB2; assay: Eurofins in vitro kinase inhibition assay; format: biochemical; conditions: compound 20 µM; mean (SD); above 50% significant, 25-50% weak
Method in brief: as §2

[14] = biological target: T9, PI3K; assay: DiscoverX KINOMEscan competition binding assay; set-up: purchased DiscoverX (KINOMEscan service); host or cells: E. coli BL21-derived host (T7 phage) or HEK-293; conditions: compound 10 µM; lower values = higher affinity; below 35% = significant binding
Method in brief: as §1
Target sequence in this assay (P42336 whole entry): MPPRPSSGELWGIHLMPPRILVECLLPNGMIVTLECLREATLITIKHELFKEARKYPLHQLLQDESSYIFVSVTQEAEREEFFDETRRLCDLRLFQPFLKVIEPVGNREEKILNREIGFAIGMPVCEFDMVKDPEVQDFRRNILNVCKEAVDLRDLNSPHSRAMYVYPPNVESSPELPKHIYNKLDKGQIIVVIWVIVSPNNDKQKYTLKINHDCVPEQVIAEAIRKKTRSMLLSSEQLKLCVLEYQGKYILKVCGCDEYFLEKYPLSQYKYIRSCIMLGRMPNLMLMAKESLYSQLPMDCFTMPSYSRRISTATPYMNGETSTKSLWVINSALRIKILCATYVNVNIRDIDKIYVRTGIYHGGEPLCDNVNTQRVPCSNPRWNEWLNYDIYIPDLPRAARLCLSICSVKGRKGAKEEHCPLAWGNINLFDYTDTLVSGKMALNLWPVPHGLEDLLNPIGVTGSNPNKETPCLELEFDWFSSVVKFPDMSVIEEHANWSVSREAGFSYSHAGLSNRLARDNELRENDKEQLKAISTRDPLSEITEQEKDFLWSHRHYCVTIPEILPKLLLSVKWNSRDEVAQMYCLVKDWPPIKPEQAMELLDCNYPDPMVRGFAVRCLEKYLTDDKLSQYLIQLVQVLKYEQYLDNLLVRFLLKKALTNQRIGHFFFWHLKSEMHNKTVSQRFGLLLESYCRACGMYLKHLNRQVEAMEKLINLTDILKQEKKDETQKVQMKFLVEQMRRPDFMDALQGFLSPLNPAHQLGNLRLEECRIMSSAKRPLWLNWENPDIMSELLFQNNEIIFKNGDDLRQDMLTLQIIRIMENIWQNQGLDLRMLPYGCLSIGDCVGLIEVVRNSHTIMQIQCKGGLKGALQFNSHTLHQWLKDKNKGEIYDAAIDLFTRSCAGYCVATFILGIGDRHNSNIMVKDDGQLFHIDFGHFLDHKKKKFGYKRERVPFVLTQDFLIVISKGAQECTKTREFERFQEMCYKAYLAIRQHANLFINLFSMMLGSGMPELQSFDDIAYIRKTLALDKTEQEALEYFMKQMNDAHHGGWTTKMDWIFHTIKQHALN

Row | SMILES | kinase binding spectrum ([1]; TKs) | % control, p38α (DiscoverX) [2] [% control] | % control, CDK2 (DiscoverX) [3] [% control] | % control, BRAF (DiscoverX) [4] [% control] | % control, LCK (DiscoverX) [5] [% control] | % control, VEGFR2 (DiscoverX) [6] [% control] | % control, MET (DiscoverX) [7] [% control] | % control, EGFR (DiscoverX) [8] [% control] | % control, ErbB2 (DiscoverX) [9] [% control] | % inhibition of control activity, PI3K (Eurofins) [10] | % inhibition of control activity, BRAF (Eurofins) [11] | % inhibition of control activity, EGFR (Eurofins) [12] | % inhibition of control activity, ErbB2 (Eurofins) [13] | % control, PI3K (DiscoverX) [14] [% control] | fraction of kinases bound in a panel ([1]; panel of 290 kinases)
1 | Cc1nc(Nc2ncc(C(=O)Nc3c(C)cccc3Cl)s2)cc(N2CCN(CCO)CC2)n1 [dasatinib] | binds to a broad spectrum of TKs with high affinity | – | – | – | – | – | – | – | – | – | – | – | – | – | –
2 | Cc1ccc(-n2cnnn2)cc1NC(=O)NC1CC1 [DS44245] | – | 100 | 100 | 99 | 100 | 98 | 90 | 100 | 100 | 1.8 (4.4) % inhibition | -13.7 (10.5) % inhibition | 2.4 (14.7) % inhibition | -3.4 (1.0) % inhibition | 100 | –
3 | CCN(CC)CCNC(=O)c1c(C)[nH]c(/C=C2\C(=O)Nc3ccc(F)cc32)c1C [Sunitinib] | – | – | – | – | – | – | – | – | – | – | – | – | – | – | more than 50%
4 | CC1(C)C2CC=C(COC(=O)c3cnn4cccnc34)C1C2 (stereo not drawn) [DS34376] | – | 100 | 99 | 92 | 100 | 100 | 100 | 90 | 100 | -2 (0.8) % inhibition | -11.3 (4.2) % inhibition | 16.1 (7.5) % inhibition | -1.6 (1.9) % inhibition | 100 | –
5 | Cc1[nH]c2nc3c(c(=O)n(Cc4ccccc4)c(=O)n3C)n2c1C [DS62156] | – | 97 | 100 | 95 | 100 | 100 | 87 | 90 | 96 | 1.5 (5.8) % inhibition | -6.3 (1.6) % inhibition | 16.6 (0.4) % inhibition | 3.1 (3.3) % inhibition | 66 | –
6 | COCCCNC(=O)c1nc2c3c4c(sc3ncn2n1)COC(C)(C)C4 [DS11689] | – | 100 | 100 | 88 | 100 | 100 | 99 | 100 | 99 | -0.2 (0.4) % inhibition | -8.3 (20.8) % inhibition | 18.1 (7.9) % inhibition | 0.1 (2.1) % inhibition | 99 | –
7 | C[C@H](COCC(F)(F)F)NC(=O)Cc1n[nH]c(=O)c2ccccc12 [DS04644] | – | 100 | 99 | 97 | 96 | 100 | 100 | 100 | 100 | -2.8 (0.6) % inhibition | -14.7 (7.4) % inhibition | 3.4 (1.8) % inhibition | -7.4 (1.0) % inhibition | 100 | –
8 | CC(=O)c1cc(CC(=O)N(C)C[C@H]2CCCCO2)cs1 [DS84326] | – | 90 | 100 | 100 | 100 | 100 | 95 | 100 | 97 | 0.7 (0.8) % inhibition | -8.2 (13.6) % inhibition | 23.4 (0.6) % inhibition | 0.2 (2.8) % inhibition | 100 | –
9 | O=C(Cn1cnc2c(cnn2CCO)c1=O)NCc1ccccc1 [DS05168] | – | 100 | 99 | 98 | 95 | 100 | 94 | 100 | 100 | -1 (1.6) % inhibition | -12.4 (10.9) % inhibition | 11.1 (1.8) % inhibition | 2.8 (1.6) % inhibition | 100 | –
